Data published in US20210261642A1, “SOLUBILITY OF GLP-1 PEPTIDE” (Novo Nordisk A/S, priority 2017, published 2021).

Test: Assay (I): Determination of Solubility (96-well plate, pH 3.0-11.0, organic solvent 0-70% w/w, UV absorption at 280 nm)
Assay type: physicochemical
Settings: Method 1
Description: Assay (I): Determination of Solubility
96-Well Plate Preparation
96-well plates containing target peptide in a solid form were prepared in one of two ways:
Method 1 (evaporation): Addition of 100 μl stock solution of said peptide at a concentration of 4-6 mg/ml to each well of a 96-well half area plate (150 μl well size). Subsequently the solvent was evaporated by applying a vacuum until the solvent was completely removed.
Method 2 (precipitation): Addition of a certain volume of a stock solution of said peptide containing to each well of a 96-well half area plate followed by the addition of a certain volume of concentrated phosphoric acid to obtain a pH of 4.6 followed by addition of a certain volume of ethanol resulting in a final ethanol concentration of 20% v/v. Subsequently the plate was stored at 4° C. for 1 h and then centrifuged at 4,000 rpm for 20 min. Finally the supernatant was removed. The concentration of the stock solution was chosen in a way that the final amount of peptide after supernatant removal was >0.4 mg per well.
In both cases the stock solution was prepared by adding de-ionized water to a certain amount of powder of said peptide followed by a stepwise addition of small amounts of a concentrated sodium hydroxide solution until said peptide was completely in solution.
To determine solubility of a target peptide at different pH and organic solvent concentrations, two different buffer systems were used in independent experiments to cover the whole range from pH 3.0 to pH 11.0. Buffer system 1 covers pH 3.0-7.5 and buffer system 2 covers pH 7.5-11.0. For each buffer system 96 different solvent compositions were premixed in the following way: • 1. A low pH buffer (adjusted to either pH 3.0 or pH 7.5) and a high pH buffer (adjusted to either pH 7.5 or pH 11.0) were mixed at 8 different ratios to obtain values between pH 3.0 and pH 7.5 or pH 7.5 and pH 11.0, respectively. The total volume after mixing was 300 μl. • 2. 12 different amounts of organic solvent were then added to these buffers to obtain organic solvent (e.g. ethanol) concentrations between 0 and 70% w/w. • 3. Water was then added to obtain a total weight of 1.0 g of solvent in each well.
After preparing the 96 different solvent systems, 100 μl of each system was transferred to the 96-well plate containing the solid form of the target peptide (prepared as described in the section “96-well plate preparation”). The plate was then stored at a given temperature (between 5° C. and 70° C.) for a given time on a rotating shaker set to 400 rpm. At regular time intervals the plate was centrifuged (4,000 rpm for 10 min) and a 10 μl sample was taken from each well. The samples were then analysed by UV absorption at 280 nm for peptide quantification. Peptide concentration results are given as UV absorption at 280 nm of the sample subtracted UV absorption at 280 nm of a well comprising 10 μl water.
The buffers used were as follows: • Buffer system 1 (for the pH range from pH 3.0-7.5)
• Buffer system 2 (for the pH ranae from pH 7.5-11.0)
Solubility of liraglutide was determined using Assay (I) described herein. Liraglutide was prepared using Method 1 (evaporation) or Method 2 (precipitation) as described in subsection “96-well plate preparation”.

## CCCCCCCCCCCCCCCC(=O)N[C@@H](CCC(=O)NCCCC[C@H](NC(=O)[C@H](C)NC(=O)[C@H](C)NC(=O)[C@H](CCC(N)=O)NC(=O)CNC(=O)[C@H](CCC(=O)O)NC(=O)[C@H](CC(C)C)NC(=O)[C@H](Cc1ccc(O)cc1)NC(=O)[C@H](CO)NC(=O)[C@H](CO)NC(=O)[C@@H](NC(=O)[C@H](CC(=O)O)NC(=O)[C@H](CO)NC(=O)[C@@H](NC(=O)[C@H](Cc1ccccc1)NC(=O)[C@@H](NC(=O)CNC(=O)[C@H](CCC(=O)O)NC(=O)[C@H](C)NC(=O)[C@@H](N)Cc1cnc[nH]1)[C@@H](C)O)[C@@H](C)O)C(C)C)C(=O)N[C@@H](CCC(=O)O)C(=O)N[C@@H](Cc1ccccc1)C(=O)N[C@H](C(=O)N[C@@H](C)C(=O)N[C@@H](Cc1c[nH]c2ccccc12)C(=O)N[C@@H](CC(C)C)C(=O)N[C@H](C(=O)N[C@@H](CCCNC(=N)N)C(=O)NCC(=O)N[C@@H](CCCNC(=N)N)C(=O)NCC(=O)O)C(C)C)[C@@H](C)CC)C(=O)O [liraglutide, Arg34,Lys26-(N-epsilon-(gamma-L-glutamyl(N-alfa-hexadecanoyl)))-GLP-1(7-37)]
MeCN 0.0% w/w, pH 3.0, RT
  Peptide concentration after 5 min: 0.1 mg/mL
  Peptide concentration after 180 min: 0.1 mg/mL
MeCN 0.0% w/w, pH 3.6, RT
  Peptide concentration after 5 min: 0.1 mg/mL
  Peptide concentration after 180 min: 0.1 mg/mL
MeCN 0.0% w/w, pH 4.3, 5° C.
  Peptide concentration after 5 min: 0.1 mg/mL
  Peptide concentration after 180 min: 0.1 mg/mL
MeCN 0.0% w/w, pH 4.3, RT
  Peptide concentration after 5 min: 0.1 mg/mL
  Peptide concentration after 180 min: 0.1 mg/mL
  Peptide concentration after 24 h: 0.0 mg/mL
MeCN 0.0% w/w, pH 4.9, 5° C.
  Peptide concentration after 5 min: 0.2 mg/mL
  Peptide concentration after 180 min: 0.1 mg/mL
MeCN 0.0% w/w, pH 5.6, 5° C.
  Peptide concentration after 5 min: 0.1 mg/mL
  Peptide concentration after 180 min: 0.1 mg/mL
  Peptide concentration after 24 h: 0.1 mg/mL
MeCN 0.0% w/w, pH 5.6, RT
  Peptide concentration after 24 h: 0.0 mg/mL
MeCN 0.0% w/w, pH 6.2, 5° C.
  Peptide concentration after 5 min: 0.1 mg/mL
  Peptide concentration after 180 min: 0.1 mg/mL
MeCN 0.0% w/w, pH 6.9, 5° C.
  Peptide concentration after 5 min: 0.4 mg/mL
  Peptide concentration after 180 min: 2.0 mg/mL
  Peptide concentration after 24 h: >4.0 mg/mL
MeCN 0.0% w/w, pH 6.9, RT
  Peptide concentration after 24 h: >4.0 mg/mL
MeCN 0.0% w/w, pH 7.5, 5° C.
  Peptide concentration after 5 min: 0.6 mg/mL
  Peptide concentration after 180 min: 2.6 mg/mL
  Peptide concentration after 24 h: >4.0 mg/mL
MeCN 0.0% w/w, pH 7.5, RT
  Peptide concentration after 24 h: >4.0 mg/mL
MeCN 0.0% w/w, pH 8.0, 5° C.
  Peptide concentration after 5 min: 0.5 mg/mL
  Peptide concentration after 180 min: 2.1 mg/mL
  Peptide concentration after 24 h: >4.0 mg/mL
MeCN 0.0% w/w, pH 8.5, 5° C.
  Peptide concentration after 5 min: 0.3 mg/mL
  Peptide concentration after 180 min: 2.9 mg/mL
  Peptide concentration after 24 h: >4.0 mg/mL
MeCN 0.0% w/w, pH 9.0, 5° C.
  Peptide concentration after 5 min: 0.3 mg/mL
  Peptide concentration after 180 min: 2.8 mg/mL
  Peptide concentration after 24 h: >4.0 mg/mL
MeCN 0.0% w/w, pH 9.5, 5° C.
  Peptide concentration after 5 min: 0.4 mg/mL
  Peptide concentration after 180 min: 2.6 mg/mL
  Peptide concentration after 24 h: >4.0 mg/mL
MeCN 0.0% w/w, pH 10.0, 5° C.
  Peptide concentration after 5 min: 0.4 mg/mL
  Peptide concentration after 180 min: 3.1 mg/mL
  Peptide concentration after 24 h: >4.0 mg/mL
MeCN 0.0% w/w, pH 10.5, 5° C.
  Peptide concentration after 5 min: 0.5 mg/mL
  Peptide concentration after 180 min: 2.9 mg/mL
  Peptide concentration after 24 h: >4.0 mg/mL
MeCN 0.0% w/w, pH 11.0, 5° C.
  Peptide concentration after 5 min: 0.2 mg/mL
  Peptide concentration after 180 min: 1.6 mg/mL
  Peptide concentration after 24 h: >4.0 mg/mL
MeCN 6.4% w/w, pH 3.0, 5° C.
  Peptide concentration after 5 min: 0.1 mg/mL
  Peptide concentration after 180 min: 0.2 mg/mL
  Peptide concentration after 24 h: 0.3 mg/mL
MeCN 6.4% w/w, pH 3.0, RT
  Peptide concentration after 24 h: 0.1 mg/mL
MeCN 6.4% w/w, pH 3.6, 5° C.
  Peptide concentration after 5 min: 0.1 mg/mL
  Peptide concentration after 180 min: 0.1 mg/mL
  Peptide concentration after 24 h: 0.2 mg/mL
MeCN 6.4% w/w, pH 3.6, RT
  Peptide concentration after 24 h: 0.1 mg/mL
MeCN 6.4% w/w, pH 4.3, 5° C.
  Peptide concentration after 5 min: 0.1 mg/mL
  Peptide concentration after 180 min: 0.1 mg/mL
  Peptide concentration after 24 h: 0.2 mg/mL
MeCN 6.4% w/w, pH 8.0, 5° C.
  Peptide concentration after 5 min: 0.8 mg/mL
  Peptide concentration after 180 min: 2.2 mg/mL
  Peptide concentration after 24 h: >4.0 mg/mL
MeCN 6.4% w/w, pH 8.5, 5° C.
  Peptide concentration after 5 min: 0.8 mg/mL
  Peptide concentration after 180 min: 2.6 mg/mL
  Peptide concentration after 24 h: >4.0 mg/mL
MeCN 6.4% w/w, pH 9.0, 5° C.
  Peptide concentration after 5 min: 1.0 mg/mL
  Peptide concentration after 180 min: 2.9 mg/mL
  Peptide concentration after 24 h: >4.0 mg/mL
MeCN 6.4% w/w, pH 9.5, 5° C.
  Peptide concentration after 5 min: 0.6 mg/mL
  Peptide concentration after 180 min: 2.5 mg/mL
  Peptide concentration after 24 h: >4.0 mg/mL
MeCN 6.4% w/w, pH 10.0, 5° C.
  Peptide concentration after 5 min: 1.0 mg/mL
  Peptide concentration after 180 min: 3.1 mg/mL
  Peptide concentration after 24 h: >4.0 mg/mL
MeCN 6.4% w/w, pH 10.5, 5° C.
  Peptide concentration after 5 min: 0.7 mg/mL
  Peptide concentration after 180 min: 2.6 mg/mL
  Peptide concentration after 24 h: >4.0 mg/mL
MeCN 6.4% w/w, pH 11.0, 5° C.
  Peptide concentration after 5 min: 0.7 mg/mL
  Peptide concentration after 180 min: 1.7 mg/mL
  Peptide concentration after 24 h: >4.0 mg/mL
MeCN 12.7% w/w, pH 8.0, 5° C.
  Peptide concentration after 5 min: 1.3 mg/mL
  Peptide concentration after 180 min: 2.2 mg/mL
  Peptide concentration after 24 h: >4.0 mg/mL
MeCN 12.7% w/w, pH 8.5, 5° C.
  Peptide concentration after 5 min: 0.8 mg/mL
  Peptide concentration after 180 min: 2.1 mg/mL
  Peptide concentration after 24 h: >4.0 mg/mL
MeCN 12.7% w/w, pH 9.0, 5° C.
  Peptide concentration after 5 min: 0.8 mg/mL
  Peptide concentration after 180 min: 1.8 mg/mL
  Peptide concentration after 24 h: >4.0 mg/mL
MeCN 12.7% w/w, pH 9.5, 5° C.
  Peptide concentration after 5 min: 0.9 mg/mL
  Peptide concentration after 180 min: 1.9 mg/mL
  Peptide concentration after 24 h: >4.0 mg/mL
MeCN 12.7% w/w, pH 10.0, 5° C.
  Peptide concentration after 5 min: 0.8 mg/mL
  Peptide concentration after 180 min: 2.3 mg/mL
  Peptide concentration after 24 h: >4.0 mg/mL
MeCN 12.7% w/w, pH 10.5, 5° C.
  Peptide concentration after 5 min: 1.1 mg/mL
  Peptide concentration after 180 min: 2.1 mg/mL
  Peptide concentration after 24 h: >4.0 mg/mL
MeCN 12.7% w/w, pH 11.0, 5° C.
  Peptide concentration after 5 min: 0.6 mg/mL
  Peptide concentration after 180 min: 1.5 mg/mL
  Peptide concentration after 24 h: >4.0 mg/mL
MeCN 19.1% w/w, pH 8.0, 5° C.
  Peptide concentration after 5 min: 1.0 mg/mL
  Peptide concentration after 180 min: 2.7 mg/mL
  Peptide concentration after 24 h: >4.0 mg/mL
